Source: US9481674B1, “Dihydropyrrolopyridine inhibitors of ROR-gamma” (Vitae Pharmaceuticals, Inc., priority 2016, dated 2016)

How the values were obtained:
[1] = biological target: T1, recombinant RORγ Ligand Binding Domain (LBD) protein (Homo sapiens, UniProt P51449); test: Radio-Ligand RORγ Binding Assay (Assay 1); settings: cell-free competition with 25-hydroxy[26,27-3H]-cholesterol; read-out: RORγ Binding Ki Range* (nM) (Assay 1)
T1 construct: 6×His; GST
T1 sequence (P51449 269-508 limits assumed): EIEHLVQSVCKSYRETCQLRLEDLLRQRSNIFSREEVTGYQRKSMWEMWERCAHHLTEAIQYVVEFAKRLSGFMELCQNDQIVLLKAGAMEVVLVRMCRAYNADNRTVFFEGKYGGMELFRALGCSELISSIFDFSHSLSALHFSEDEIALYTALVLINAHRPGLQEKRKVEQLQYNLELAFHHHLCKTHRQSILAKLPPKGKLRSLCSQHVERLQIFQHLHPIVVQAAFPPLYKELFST
Protocol: Radio-Ligand RORγ Binding Assay (Assay 1)
The plate was shaken at 700 rpm for 20 min and incubated for 10 min at rt, after which 40 μL of poly-Lys YSi SPA beads (PerkinElmer, Cat. # RPNQ0010) were added to achieve 50 μg of the beads per well. The plate was incubated on an orbital shaker for 20 min and then for 10 min without agitation at rt. SPA signal for tritium beta radiation was registered on PerkinElmer Microbeta plate reader.

IL-17A production = test: Human Whole Blood Assay (Assay 3); type: cell-based; settings: IL-17A, 50% blood/media, CytoStim, 48 h, read-out: 50% Human Whole Blood Assay IC50, nM* (Assay 3)
Protocol: Human Whole Blood Assay (Assay 3)
Compounds of the invention were tested in the human whole blood assay to measure their effects on IL-17A production as determined by cytokine secretion into 50% blood/media supernatant. Mixtures of sodium heparinized whole blood (isolated from healthy human donors) and the T cell activator CytoStim, in the presence or absence of compound, were plated in sterilized, tissue culture-treated 24-well plates. Specifically, the mixtures in each well were as follows: (1) 500 μL of whole blood, (2) 250 μL of compound diluted into RPMI-1640 media containing 10% HyClone™ FCS (Thermo Fisher Scientific, Waltham, Mass.), Gibco® Pen/Strep and Gibco® NEAA (Life Technologies, Grand Island, N.Y.), and (3) 250 μL of CytoStim (Miltenyi Biotech, Germany) diluted to a final concentration of 10 μL/mL in complete cell culture medium.
IL-17A cytokine expression was determined using 25 μL of the transferred supernatant diluted with 25 μL of Diluent 43 from the Human IL-17A V-PLEX™ kit (cat. # K151RFD-4, Meso Scale Discovery, Rockville, Md.). The assay was performed according to the manufacturer's instructions using included reagents. The IL-17A V-PLEX™ plates were read using the Meso Scale Discovery Imager (Model 1200).

[2] = biological target: T2, full-length RORγt in Jurkat cells (Homo sapiens, UniProt P51449)
T2 sequence (P51449 1-497 isoform P51449-2): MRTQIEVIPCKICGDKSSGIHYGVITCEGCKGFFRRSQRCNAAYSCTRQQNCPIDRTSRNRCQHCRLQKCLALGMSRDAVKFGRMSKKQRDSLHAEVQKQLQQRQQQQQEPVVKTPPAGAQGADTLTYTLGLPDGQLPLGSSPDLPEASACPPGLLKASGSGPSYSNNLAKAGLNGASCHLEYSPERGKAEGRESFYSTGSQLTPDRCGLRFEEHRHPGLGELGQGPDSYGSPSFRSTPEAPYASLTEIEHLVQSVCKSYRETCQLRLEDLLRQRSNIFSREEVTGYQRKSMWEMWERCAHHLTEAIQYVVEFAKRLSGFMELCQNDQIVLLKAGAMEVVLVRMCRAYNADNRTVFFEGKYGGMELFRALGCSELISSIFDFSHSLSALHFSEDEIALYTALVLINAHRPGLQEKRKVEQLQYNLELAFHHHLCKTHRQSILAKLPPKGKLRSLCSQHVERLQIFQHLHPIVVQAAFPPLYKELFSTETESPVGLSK
Protocol: ROR ? t 5×RORE Assay in Jurkat Cells (Assay 2)
Compounds of the present invention were tested for RORγ inverse agonist activity in a cell-based, transcriptional activity assay. […] Luciferase activity in the conditioned supernatants was determined with NanoGlo® assay reagents (Promega, Cat.# N1130).

CCS(=O)(=O)c1ccc([C@H](CO)NC(=O)c2cnc3c(c2)CN(C[C@@H]2CC[C@@H](C(F)(F)F)OC2)[C@H]3C(C)C)nc1 (single isomer, unassigned) [Compound 1]
Ki [1]: < 100 nM | IC50 (IL-17A production): < 100 nM

CCS(=O)(=O)c1ccc([C@H](CO)NC(=O)c2cnc3c(c2)CN(C[C@@H]2CC[C@@H](C(F)(F)F)OC2)[C@H]3C(C)C)cc1 (single isomer, unassigned) [Compound 2]
Ki [1]: < 100 nM | IC50 (IL-17A production): < 100 nM

CCS(=O)(=O)c1ccc([C@H](CO)NC(=O)c2cnc3c(c2)CN(C[C@H]2CC[C@H](C(F)(F)F)OC2)[C@H]3C(C)C)cc1 (single isomer, unassigned) [Compound 5]
Ki [1]: < 100 nM | IC50 (IL-17A production): < 100 nM | IC50 [2]: < 100 nM

CC[C@H]1c2ncc(C(=O)N[C@@H](CO)c3ccc(S(=O)(=O)CC)cc3)cc2CN1C[C@H]1CC[C@H](C(F)(F)F)OC1 (single isomer, unassigned) [Compound 10]
Ki [1]: < 100 nM | IC50 (IL-17A production): < 100 nM

CC[C@H]1c2ncc(C(=O)N[C@@H](CO)c3ccc(S(=O)(=O)CC)cc3)cc2CN1C[C@@H]1CC[C@@H](C(F)(F)F)OC1 (single isomer, unassigned) [Compound 11]
Ki [1]: < 100 nM

CCS(=O)(=O)c1ccc([C@H](CO)NC(=O)c2cnc3c(c2)CN(C[C@@H]2CC[C@@H](C(F)(F)F)CO2)[C@H]3C(C)C)cc1 (single isomer, unassigned) [Compound 14]
Ki [1]: < 100 nM | IC50 (IL-17A production): < 100 nM

CCS(=O)(=O)c1ccc([C@H](CO)NC(=O)c2cnc3c(c2)CN(C[C@H]2CC[C@H](C(F)(F)F)CO2)[C@H]3C(C)C)cc1 (single isomer, unassigned) [Compound 15]
Ki [1]: < 100 nM

CCS(=O)(=O)c1ccc([C@H](CO)NC(=O)c2cnc3c(c2)CN(C[C@@H]2CC[C@H](C(F)(F)F)CO2)[C@H]3C(C)C)cc1 (single isomer, unassigned) [Compound 18]
Ki [1]: < 100 nM

CCS(=O)(=O)c1ccc([C@H](CO)NC(=O)c2cnc3c(c2)CN(C[C@H]2CC[C@@H](C(F)(F)F)CO2)[C@H]3C(C)C)cc1 (single isomer, unassigned) [Compound 21]
Ki [1]: < 100 nM

CCS(=O)(=O)c1ccc([C@H](NC(=O)c2cnc3c(c2)CN(C[C@H]2CC[C@H](C(F)(F)F)CC2)[C@H]3C(C)C)[C@H](C)O)cc1 (single isomer, unassigned) [Compound 39]
Ki [1]: < 100 nM | IC50 (IL-17A production): 100 to 200 nM

CCS(=O)(=O)c1ccc([C@@H](NC(=O)c2cnc3c(c2)CN(C[C@H]2CC[C@H](C(F)(F)F)CC2)[C@H]3C(C)C)[C@@H](C)O)cc1 (single isomer, unassigned) [Compound 42]
Ki [1]: < 100 nM | IC50 (IL-17A production): > 200 nM

CCS(=O)(=O)c1ccc(C(C)(CO)NC(=O)c2cnc3c(c2)CN(C[C@H]2CC[C@H](C(F)(F)F)CC2)[C@H]3C(C)C)cc1 (stereo partly shown) [Compound 7]
Ki [1]: < 100 nM | IC50 [2]: 100 to 1000 nM

CC(C)[C@H]1c2ncc(C(=O)N[C@@H](CO)c3ccc(S(C)(=O)=O)cc3)cc2CN1C[C@H]1CC[C@@H](C(F)(F)F)CC1 [Compound 8]
Ki [1]: < 100 nM | IC50 [2]: > 1000 nM

CCS(=O)(=O)c1ccc(C(C)(CO)NC(=O)c2cnc3c(c2)CN(C[C@H]2CC[C@H](C(F)(F)F)CC2)[C@@H]3C(C)C)cc1 (stereo partly shown) [Compound 9]
Ki [1]: 100 to 1000 nM

CCS(=O)(=O)c1ccc([C@H](CO)NC(=O)c2cnc3c(c2)CN(CC(F)(F)F)[C@@H]3Cc2ccccc2)cc1 [Compound 19]
Ki [1]: < 100 nM | IC50 [2]: 100 to 1000 nM

CCS(=O)(=O)c1ccc([C@H](CO)NC(=O)c2cnc3c(c2)CN(CC(F)(F)F)[C@H]3Cc2ccccc2)cc1 [Compound 22]
Ki [1]: < 100 nM | IC50 [2]: < 100 nM

CCS(=O)(=O)c1ccc([C@H](CO)NC(=O)c2cnc3c(c2)CN(C[C@H]2CC[C@H](C(F)(F)F)CC2)C3C(F)(F)F)cc1 (stereo partly shown) [Compound 23]
Ki [1]: < 100 nM | IC50 [2]: < 100 nM

CCS(=O)(=O)c1ccc([C@H](CO)NC(=O)c2cnc3c(c2)CN(C[C@H]2CC[C@H](C(F)(F)F)CC2)[C@H]3C)cc1 [Compound 26]
Ki [1]: < 100 nM | IC50 [2]: 100 to 1000 nM

CCS(=O)(=O)c1ccc([C@H](CO)NC(=O)c2cnc3c(c2)CN(C[C@H]2CC[C@H](C(F)(F)F)CC2)[C@H]3CC2CCOCC2)cc1 [Compound 27]
Ki [1]: < 100 nM | IC50 [2]: < 100 nM

CCS(=O)(=O)c1ccc([C@H](CO)NC(=O)c2cnc3c(c2)CN(C[C@H]2CC[C@H](C(F)(F)F)CC2)[C@@H]3C)cc1 [Compound 28]
Ki [1]: > 1000 nM

CCS(=O)(=O)c1ccc([C@H](CO)NC(=O)c2cnc3c(c2)CN(C[C@H]2CC[C@H](C(F)(F)F)CC2)[C@H]3C2CCOCC2)cc1 [Compound 31]
Ki [1]: < 100 nM | IC50 [2]: < 100 nM

CCS(=O)(=O)c1ccc([C@H](CO)NC(=O)c2cnc3c(c2)CN(C)[C@H]3Cc2ccccc2)cc1 [Compound 35]
Ki [1]: 100 to 1000 nM

CCS(=O)(=O)c1ccc([C@H](CO)NC(=O)c2cnc3c(c2)CN(C[C@H]2CC[C@H](C(F)(F)F)CC2)[C@H]3Cc2ccccc2)cc1 [Compound 37]
Ki [1]: < 100 nM | IC50 [2]: < 100 nM

CCS(=O)(=O)c1ccc([C@H](CO)NC(=O)c2cnc3c(c2)CN(C[C@H]2CC[C@H](C(F)(F)F)CC2)[C@@H]3Cc2ccccc2)cc1 [Compound 40]
Ki [1]: 100 to 1000 nM

CC[C@H]1c2ncc(C(=O)N[C@@H](CO)c3ccc(S(=O)(=O)CC)cc3)cc2CN1C[C@H]1CC[C@H](C(F)(F)F)CC1 [Compound 41, (S)-7-ethyl-N—((R)-1-(4-(ethylsulfonyl)phenyl)-2-hydroxyethyl)-6-((trans-4-(trifluoromethyl)cyclohexyl)methyl)-6,7-dihydro-5H-pyrrolo[3,4-b]pyridine-3-carboxamide]
IC50 (IL-17A production): < 100 nM

CCO[C@H]1CC[C@H](CN2Cc3cc(C(=O)N[C@@H](CO)c4ccc(S(=O)(=O)CC)cc4)cnc3[C@@H]2C(C)C)CC1 [Compound 43]
Ki [1]: < 100 nM | IC50 [2]: < 100 nM

CCS(=O)(=O)c1ccc([C@@H](CO)NC(=O)c2cnc3c(c2)CN(C[C@H]2CC[C@H](C(F)(F)F)CC2)[C@H]3C(C)C)nc1 [Compound 44]
IC50 (IL-17A production): > 200 nM

CCS(=O)(=O)c1ccc([C@H](CO)NC(=O)c2cnc3c(c2)CN(C[C@H]2CC[C@H](C(F)(F)F)CC2)[C@H]3C(C)C)nc1 [Compound 45]
IC50 (IL-17A production): > 200 nM

CCS(=O)(=O)c1ccc([C@H](CO)NC(=O)c2cnc3c(c2)CN(C[C@H]2CC[C@H](C(F)(F)F)CC2)[C@H]3C(C)C)cc1 [Compound 46, (S)—N—((R)-1-(4-(ethylsulfonyl)phenyl)-2-hydroxyethyl)-7-isopropyl-6-((trans-4-(trifluoromethyl)cyclohexyl)methyl)-6,7-dihydro-5H-pyrrolo[3,4-b]pyridine-3-carboxamide]
Ki [1]: < 100 nM | IC50 (IL-17A production): < 100 nM | IC50 [2]: < 100 nM

CCS(=O)(=O)c1ccc([C@@H](CO)NC(=O)c2cnc3c(c2)CN(C[C@H]2CC[C@H](C(F)(F)F)CC2)[C@H]3C(C)C)cc1 [Compound 47]
Ki [1]: < 100 nM | IC50 (IL-17A production): > 200 nM | IC50 [2]: < 100 nM
